One molecule from patent publication US10278396B2, “Synergistic Bacillus thuringiensis subsp. kurstaki and cyantraniliprole mixtures for diamondback moth, beet armyworm, sugarcane borer, and soybean looper control” (priority 2016, dated 2019) can be followed below.

One test concerns diamondback moth larvae. Description: leaf dip test, diamondback moth larvae. It is filed as in vivo. The settings on record: Plutella xylostella, foliar, Btk 0.54 ppm, cyantraniliprole 0.1 ppm, mixture 0.54 ppm + 0.1 ppm, read-out: % Efficacy. The method, then: (§1) For these tests, standardized laboratory leaf dip methods were used to inoculate plant material with treatment(s). Dry, treated leaves were placed into Petri dishes (100×25 mm) containing filter paper wetted with 500 μl of distilled H2O (“dH2O”). Each dish was then infested with between 5 and 10 larvae, dependent on species. Efficacy ratings were taken at specified intervals. Synergy ratings were calculated for each test.
In this study, the response of diamondback moth larvae to synergistic amounts of Bacillus thuringiensis subsp. kurstaki (“Btk”) and cyantraniliprole was observed.
% Cexp=A+B−(AB/100), where % Cexp is the expected efficacy and “in which A and B are the control levels given by the single [insecticides]. […] Adopting a conservative approach, Applicant determined synergy to be present at ratios of ≥1.15. […]
In order to determine synergy, rates below normal field rate ranges must be used. If normal field rate ranges are used, all of the larvae would die (combining a lethal or near lethal dose of Bacillus thuringiensis subsp. kurstaki with a lethal dose of cyantraniliprole would most likely lead to larvae death) in every treatment and synergy would not be able to be determined. […]

For the next test, the system named is beet armyworm larvae. Description: leaf dip test, beet armyworm larvae. The settings on record: Spodoptera exigua, foliar, Btk 0.54 ppm, cyantraniliprole 1.0 ppm, mixture 0.54 ppm + 1.0 ppm, read-out: % Efficacy. It counts as in vivo. On the procedure:
as §1
(§2) % Cexp=A+B−(AB/100), where % Cexp is the expected efficacy and “in which A and B are the control levels given by the single [insecticides]. If the ratio between the experimentally observed efficacy of the mixture Cobs and the expected efficacy of the mixture is greater than 1, synergistic interactions are present in the mixture.” (Gisi, Synergisitic Interaction of Fungicides in Mixtures, The American Phytopathological Society, 86:11, 1273-1279, 1996). Adopting a conservative approach, Applicant determined synergy to be present at ratios of ≥1.15.
In this study, the response of beet armyworm larvae to synergistic amounts of Bacillus thuringiensis subsp. kurstaki and cyantraniliprole was observed.
(§3) Bacillus thuringiensis subsp. kurstaki was applied at a concentration of 0.54 ppm (0.54 μg/ml). Cyantraniliprole was applied at a concentration of 1.0 ppm (1.0 μg/ml). […]

A further test concerns cabbage looper larvae. As to the kind of experiment: leaf dip test, cabbage looper larvae. It counts as in vivo. Particulars: Trichoplusia ni, foliar, Btk 0.54 ppm, cyantraniliprole 0.50 ppm, mixture 0.54 ppm + 0.50 ppm, read-out: % Efficacy. On the procedure:
as §1, §2
In this study, the response of cabbage looper larvae to Bacillus thuringiensis subsp. kurstaki and cyantraniliprole was observed.
Bacillus thuringiensis subsp. kurstaki was applied at a concentration of 0.54 ppm (0.54 μg/ml). Cyantraniliprole was applied at a concentration of 0.50 ppm (0.50 μg/ml). […]

The test system of another test is sugarcane borer larvae. As to the kind of experiment: leaf dip test, sugarcane borer larvae. It counts as in vivo. Particulars: Diatraea saccharalis, foliar, Btk 0.54 ppm, cyantraniliprole 1.0 ppm, mixture 0.54 ppm + 1.0 ppm, read-out: % Efficacy. The method, then: as §1, §2
In this study, the response of sugarcane borer larvae to synergistic amounts of Bacillus thuringiensis subsp. kurstaki and cyantraniliprole was observed.
as §3

For test [1], the system named is southwestern corn borer larvae. As to the kind of experiment: leaf dip test, southwestern corn borer larvae. It is filed as in vivo, Diatraea grandiosella. Particulars: foliar, Btk 0.54 ppm, cyantraniliprole 0.1 ppm, mixture 0.54 ppm + 0.1 ppm, read-out: % Efficacy. The method, then:
as §1, §2
In this study, the response of southwestern corn borer larvae to Bacillus thuringiensis subsp. kurstaki and cyantraniliprole was observed.
Bacillus thuringiensis subsp. kurstaki was applied at a concentration of 0.54 ppm (0.54 μg/ml). Cyantraniliprole was applied at a concentration of 0.1 ppm (0.1 μg/ml). […]

The subject of another test is soybean looper larvae. Description: leaf dip test, soybean looper larvae. It is filed as in vivo, Chrysodeixis includens. The settings on record: foliar, Btk 0.54 ppm, cyantraniliprole 1.0 ppm, mixture 0.54 ppm + 1.0 ppm, read-out: % Efficacy. The method, then:
as §1, §2
In this study, the response of soybean looper larvae to synergistic amounts of Bacillus thuringiensis subsp. kurstaki and cyantraniliprole was observed.
as §3

The next test concerns corn earworm larvae. As to the kind of experiment: leaf dip test, corn earworm larvae. It counts as in vivo. Particulars: Helicoverpa zea, foliar, Btk 0.54 ppm, cyantraniliprole 10.0 ppm, mixture 0.54 ppm + 10.0 ppm, read-out: % Efficacy. On the procedure:
as §1, §2
In this study, the response of corn earworm larvae to Bacillus thuringiensis subsp. kurstaki and cyantraniliprole was observed.
Bacillus thuringiensis subsp. kurstaki was applied at a concentration of 0.54 ppm (0.54 μg/ml). Cyantraniliprole was applied at a concentration of 10.0 ppm (10.0 μg/ml). […]

Like-named read-outs stand apart in the source and are kept apart here.

As to `CNC(=O)c1cc(C#N)cc(C)c1NC(=O)c1cc(Br)nn1-c1ncccc1Cl` [Cyantraniliprole, 3-Bromo-1-(3-chloro-2-pyridinyl)-N-[4-cyano-2-methyl-6-(methylcarbamoyl)phenyl]-1H-pyrazole-5-carboxamide], the Emax at 0.1 ppm with diamondback moth larvae (24 h after treatment) turned out to be 16%; with diamondback moth larvae (48 h after treatment), 47%; in test [1] (24 h after treatment), 23%; in test [1] (48 h after treatment), 39%. For the same molecule, the Emax at 1 ppm was 20% in the test on beet armyworm larvae (24 h after treatment); 37% in the test with beet armyworm larvae (48 h after treatment); 30% in the test on sugarcane borer larvae (24 h after treatment); 32% in the test on sugarcane borer larvae (48 h after treatment); 6% with soybean looper larvae (24 h after treatment); 10% in the test on soybean looper larvae (48 h after treatment). Also, the Emax at 0.5 ppm came to 15% with cabbage looper larvae (24 h after treatment) and 51% in the test on cabbage looper larvae (48 h after treatment). Moreover, the Emax at 10 ppm came out at 29% in the test on corn earworm larvae (24 h after treatment) and 33% in the test on corn earworm larvae (48 h after treatment).
